Reference: ChEMBL document CHEMBL4420081, “Novel benzylamino substituted quinazolines and derivatives as sos1 inhibitors” (2018)
Calls of active or inactive are those of the source. No cut-off for these calls is given here.

What was measured:
NCI-H2122 [1] = assay: Growth inhibition of human NCI-H2122 cells grown under 3D anchorage-independent soft-agar conditions at 123 nM incubated for 14 days by alamar blue dye based assay relative to control; format: functional; conditions: NCI-H2122, 336 h, read-out: GI
NCI-H2122 [2] = assay: Growth inhibition of human NCI-H2122 cells grown under 3D anchorage-independent soft-agar conditions at 164 nM incubated for 14 days by alamar blue dye based assay relative to control; format: functional; conditions: NCI-H2122, 336 h, read-out: GI
NCI-H2122 [3] = assay: Growth inhibition of human NCI-H2122 cells grown under 3D anchorage-independent soft-agar conditions at 1110 nM incubated for 14 days by alamar blue dye based assay relative to control; format: functional; conditions: NCI-H2122, 336 h, read-out: GI
NCI-H2122 [4] = assay: Growth inhibition of human NCI-H2122 cells grown under 3D anchorage-independent soft-agar conditions at 3330 nM incubated for 14 days by alamar blue dye based assay relative to control; format: functional; conditions: NCI-H2122, 336 h, read-out: GI
NCI-H2122 [5] = assay: Growth inhibition of human NCI-H2122 cells grown under 3D anchorage-independent soft-agar conditions at 370 nM incubated for 14 days by alamar blue dye based assay relative to control; format: functional; conditions: NCI-H2122, 336 h, read-out: GI
PC-9 [6] = assay: Growth inhibition of human PC9 cells grown under 3D anchorage-independent soft-agar conditions at 1.85 nM incubated for 14 days by alamar blue dye based assay relative to control; format: functional; conditions: PC-9, 336 h, read-out: GI
PC-9 [7] = assay: Growth inhibition of human PC9 cells grown under 3D anchorage-independent soft-agar conditions at 0.617 nM incubated for 14 days by alamar blue dye based assay relative to control; format: functional; conditions: PC-9, 336 h, read-out: GI
PC-9 [8] = assay: Growth inhibition of human PC9 cells grown under 3D anchorage-independent soft-agar conditions at 50 nM incubated for 14 days by alamar blue dye based assay relative to control; format: functional; conditions: PC-9, 336 h, read-out: GI
PC-9 [9] = assay: Growth inhibition of human PC9 cells grown under 3D anchorage-independent soft-agar conditions at 16.7 nM incubated for 14 days by alamar blue dye based assay relative to control; format: functional; conditions: PC-9, 336 h, read-out: GI
PC-9 [10] = assay: Growth inhibition of human PC9 cells grown under 3D anchorage-independent soft-agar conditions at 5.56 nM incubated for 14 days by alamar blue dye based assay relative to control; format: functional; conditions: PC-9, 336 h, read-out: GI
SW900 [11] = assay: Growth inhibition of human SW900 cells grown under 3D anchorage-independent soft-agar conditions at 1110 nM incubated for 14 days by alamar blue dye based assay relative to control; format: functional; conditions: SW900, 336 h, read-out: GI
NCI-H1792 [12] = assay: Growth inhibition of human NCI-H1792 cells grown under 3D anchorage-independent soft-agar conditions at 370 nM incubated for 14 days by alamar blue dye based assay relative to control; format: functional; conditions: NCI-H1792, 336 h, read-out: GI
SW900 [13] = assay: Growth inhibition of human SW900 cells grown under 3D anchorage-independent soft-agar conditions at 123 nM incubated for 14 days by alamar blue dye based assay relative to control; format: functional; conditions: SW900, 336 h, read-out: GI
SW900 [14] = assay: Growth inhibition of human SW900 cells grown under 3D anchorage-independent soft-agar conditions at 370 nM incubated for 14 days by alamar blue dye based assay relative to control; format: functional; conditions: SW900, 336 h, read-out: GI
NCI-H1792 [15] = assay: Growth inhibition of human NCI-H1792 cells grown under 3D anchorage-independent soft-agar conditions at 123 nM incubated for 14 days by alamar blue dye based assay relative to control; format: functional; conditions: NCI-H1792, 336 h, read-out: GI
NCI-H1792 [16] = assay: Growth inhibition of human NCI-H1792 cells grown under 3D anchorage-independent soft-agar conditions at 164 nM incubated for 14 days by alamar blue dye based assay relative to control; format: functional; conditions: NCI-H1792, 336 h, read-out: GI
NCI-H1792 [17] = assay: Growth inhibition of human NCI-H1792 cells grown under 3D anchorage-independent soft-agar conditions at 1110 nM incubated for 14 days by alamar blue dye based assay relative to control; format: functional; conditions: NCI-H1792, 336 h, read-out: GI
SW900 [18] = assay: Growth inhibition of human SW900 cells grown under 3D anchorage-independent soft-agar conditions at 3330 nM incubated for 14 days by alamar blue dye based assay relative to control; format: functional; conditions: SW900, 336 h, read-out: GI
NCI-H1792 [19] = assay: Growth inhibition of human NCI-H1792 cells grown under 3D anchorage-independent soft-agar conditions at 3330 nM incubated for 14 days by alamar blue dye based assay relative to control; format: functional; conditions: NCI-H1792, 336 h, read-out: GI
SW900 [20] = assay: Growth inhibition of human SW900 cells grown under 3D anchorage-independent soft-agar conditions at 164 nM incubated for 14 days by alamar blue dye based assay relative to control; format: functional; conditions: SW900, 336 h, read-out: GI
NCI-H1792 [21] = assay: Growth inhibition of human NCI-H1792 cells grown under 3D anchorage-independent soft-agar conditions at 33.3 nM incubated for 14 days by alamar blue dye based assay relative to control; format: functional; conditions: NCI-H1792, 336 h, read-out: GI
A549 [22] = assay: Growth inhibition of human A549 cells grown under 3D anchorage-independent soft-agar conditions at 100 nM incubated for 14 days by alamar blue dye based assay relative to control; format: functional; conditions: A549, 336 h, read-out: GI
A549 [23] = assay: Growth inhibition of human A549 cells grown under 3D anchorage-independent soft-agar conditions at 33.3 nM incubated for 14 days by alamar blue dye based assay relative to control; format: functional; conditions: A549, 336 h, read-out: GI
NCI-H1792 [24] = assay: Growth inhibition of human NCI-H1792 cells grown under 3D anchorage-independent soft-agar conditions at 3.7 nM incubated for 14 days by alamar blue dye based assay relative to control; format: functional; conditions: NCI-H1792, 336 h, read-out: GI
A549 [25] = assay: Growth inhibition of human A549 cells grown under 3D anchorage-independent soft-agar conditions at 3.7 nM incubated for 14 days by alamar blue dye based assay relative to control; format: functional; conditions: A549, 336 h, read-out: GI
A549 [26] = assay: Growth inhibition of human A549 cells grown under 3D anchorage-independent soft-agar conditions at 1.23 nM incubated for 14 days by alamar blue dye based assay relative to control; format: functional; conditions: A549, 336 h, read-out: GI
A549 [27] = assay: Growth inhibition of human A549 cells grown under 3D anchorage-independent soft-agar conditions at 11.1 nM incubated for 14 days by alamar blue dye based assay relative to control; format: functional; conditions: A549, 336 h, read-out: GI
NCI-H1792 [28] = assay: Growth inhibition of human NCI-H1792 cells grown under 3D anchorage-independent soft-agar conditions at 100 nM incubated for 14 days by alamar blue dye based assay relative to control; format: functional; conditions: NCI-H1792, 336 h, read-out: GI
NCI-H1792 [29] = assay: Growth inhibition of human NCI-H1792 cells grown under 3D anchorage-independent soft-agar conditions at 11.1 nM incubated for 14 days by alamar blue dye based assay relative to control; format: functional; conditions: NCI-H1792, 336 h, read-out: GI
MIA PaCa-2 = assay: Antitumor activity against human MIAPaCa2 cells grown under 3D anchorage-independent soft-agar conditions at xenografted in BomTacNMRI-Foxn1 nu mouse assessed as inhibition of tumor regression at 10 mg/kg, iv dosed in q7d regime relative to control; format: functional, organism-based
NCI-H1792 [30] = assay: Growth inhibition of human NCI-H1792 cells grown under 3D anchorage-independent soft-agar conditions at 1.23 nM incubated for 14 days by alamar blue dye based assay relative to control; format: functional; conditions: NCI-H1792, 336 h, read-out: GI
A549 [31] = assay: Growth inhibition of human A549 cells grown under 3D anchorage-independent soft-agar conditions at 370 nM incubated for 14 days by alamar blue dye based assay relative to control; format: functional; conditions: A549, 336 h, read-out: GI
A549 [32] = assay: Growth inhibition of human A549 cells grown under 3D anchorage-independent soft-agar conditions at 164 nM incubated for 14 days by alamar blue dye based assay relative to control; format: functional; conditions: A549, 336 h, read-out: GI
A549 [33] = assay: Growth inhibition of human A549 cells grown under 3D anchorage-independent soft-agar conditions at 3330 nM incubated for 14 days by alamar blue dye based assay relative to control; format: functional; conditions: A549, 336 h, read-out: GI
A549 [34] = assay: Growth inhibition of human A549 cells grown under 3D anchorage-independent soft-agar conditions at 1110 nM incubated for 14 days by alamar blue dye based assay relative to control; format: functional; conditions: A549, 336 h, read-out: GI
A549 [35] = assay: Growth inhibition of human A549 cells grown under 3D anchorage-independent soft-agar conditions at 123 nM incubated for 14 days by alamar blue dye based assay relative to control; format: functional; conditions: A549, 336 h, read-out: GI

`CCN1CCN(Cc2ccc(Nc3ncc(F)c(-c4cc(F)c5nc(C)n(C(C)C)c5c4)n3)nc2)CC1` [ABEMACICLIB] gave an inhibition of growth at 0.123 µM (NCI-H2122 [1]) of 10%, an inhibition of growth at 0.164 µM (NCI-H2122 [2]) of 103% and an inhibition of growth at 1.11 µM (NCI-H2122 [3]) of 91%. For the same compound, the inhibition of growth at 3.33 µM (NCI-H2122 [4]) was 81% and the inhibition of growth at 0.37 µM (NCI-H2122 [5]) was 73%.

For `C#Cc1cccc(Nc2ncnc3cc(OCCOC)c(OCCOC)cc23)c1` [ERLOTINIB], the inhibition of growth at 0.00185 µM (PC-9 [6]) was 12%, the inhibition of growth at 0.000617 µM (PC-9 [7]) was 0% and the inhibition of growth at 0.05 µM (PC-9 [8]) was 199%. It also gave an inhibition of growth at 0.0167 µM (PC-9 [9]) of 147% and an inhibition of growth at 0.00556 µM (PC-9 [10]) of 49%.

`COC(=O)c1ccc2c(c1)NC(=O)/C2=C(\Nc1ccc(N(C)C(=O)CN2CCN(C)CC2)cc1)c1ccccc1` [NINTEDANIB] gave an inhibition of growth at 1.11 µM (SW900 [11]) of -18%, an inhibition of growth at 0.37 µM (NCI-H1792 [12]) of 7% and an inhibition of growth at 0.123 µM (SW900 [13]) of -39%. For the same compound, the inhibition of growth at 0.37 µM (SW900 [14]) was -37%, the inhibition of growth at 0.123 µM (NCI-H1792 [15]) was 1% and the inhibition of growth at 0.164 µM (NCI-H1792 [16]) was 186%. For the same compound, the inhibition of growth at 1.11 µM (NCI-H1792 [17]) was 26%, the inhibition of growth at 3.33 µM (SW900 [18]) was 19% and the inhibition of growth at 3.33 µM (NCI-H1792 [19]) was 86%. For the same compound, the inhibition of growth at 0.164 µM (SW900 [20]) was 199%.

Compound `CC(=O)O[C@H]1C(=O)[C@@]2(C)[C@H]([C@H](OC(=O)c3ccccc3)[C@]3(O)C[C@H](OC(=O)[C@H](O)[C@@H](NC(=O)c4ccccc4)c4ccccc4)C(C)=C1C3(C)C)[C@]1(OC(C)=O)CO[C@@H]1C[C@@H]2O` [PACLITAXEL] has an inhibition of growth at 0.0333 µM (NCI-H1792 [21]) of 96%, an inhibition of growth at 0.1 µM (A549 [22]) of 114% and an inhibition of growth at 0.0333 µM (A549 [23]) of 97%. The inhibition of growth at 0.0037 µM (NCI-H1792 [24]) was 19%, the inhibition of growth at 0.0037 µM (A549 [25]) was 54% and the inhibition of growth at 0.00123 µM (A549 [26]) was 12%. For the same compound, the inhibition of growth at 0.0111 µM (A549 [27]) was 86%, the inhibition of growth at 0.1 µM (NCI-H1792 [28]) was 183% and the inhibition of growth at 0.0111 µM (NCI-H1792 [29]) was 66%. The inhibition (MIA PaCa-2) was “inactive” and the inhibition of growth at 0.00123 µM (NCI-H1792 [30]) was 7%.

`COc1cc(F)c(F)c(Nc2ccc(I)cc2F)c1NS(=O)(=O)C1(C[C@H](O)CO)CC1` [REFAMETINIB] gave an inhibition of growth at 0.37 µM (A549 [31]) of 11%, an inhibition of growth at 0.164 µM (A549 [32]) of 212% and an inhibition of growth at 3.33 µM (A549 [33]) of 209%. For the same compound, the inhibition of growth at 1.11 µM (A549 [34]) was 75% and the inhibition of growth at 0.123 µM (A549 [35]) was 5%.
